“And” between values parts separate entries of the source, which are not always exact repeats. Identical values can stand only once. The source made the active and inactive calls.
Experiments:
[1] = system: Vero; test: cells; type: functional, cell-based; conditions: Chlorocebus sabaeus
[2] = viability of uninfected HEp-2 cells – cell-based, HTS, cytotoxicity control for RSV inhibitor project, dose response (AID 2410); type: functional; conditions: human respiratory syncytial virus
[3] = system: Vero; test: cells; type: functional; conditions: Chlorocebus sabaeus
[4] = microbe, parasite or virus in culture; type: functional; conditions: Mycobacterium tuberculosis
[5] = Luminescence Cell-Based Dose Retest to Confirm Inhibitors of Cancer Stem Cells. [Related pubchem assays (depositor defined):AID2717, AID2721]; type: functional; conditions: Homo sapiens
[6] = target: T1, Polyadenylate-binding protein 1 (Homo sapiens, UniProt P11940); test: MLLE binding blockers, Cy5 peptide tracer – biochemical, fluorescence polarization, Cy5-PAM2 peptide, secondary, miRNA deadenylation inhibitor project, dose response (AID 602260); type: functional; conditions: read-out: IC50_Mean
[7] = target: T1, Polyadenylate-binding protein 1; test: MLLE domain peptide-binding blockers, IC50 – biochemical, fluorescence polarization, FITC-PAM2 peptide, dose response (AID 602259); type: functional; conditions: read-out: IC50_Mean
[8] = system: Escherichia coli; test: microbe, parasite or virus in culture
[9] = DRD fibroblast viability loss – cell-based, non-viral oncogenic, luminescence, dose response (AID 1934); type: functional; conditions: Homo sapiens
[10] = system: BJ; test: BJ-TERT fibroblast viability loss – cell-based, RAS-independent, luminescence, dose response (AID 1933); type: functional; conditions: Homo sapiens
[11] = target: T2, Microphthalmia-associated transcription factor (Homo sapiens, UniProt O75030); test: reducers of TRPM1 reporter luminescence, concentration series – cell-based, SK-MEL-5, cherry-picked, set 3, MITF inhibitor project, dose response (AID 493073); type: functional;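 further: SK-MEL-5 melanoma cells with luciferase driven by the MITF target TRPM1 promoter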
T2 sequence (O75030 whole entry): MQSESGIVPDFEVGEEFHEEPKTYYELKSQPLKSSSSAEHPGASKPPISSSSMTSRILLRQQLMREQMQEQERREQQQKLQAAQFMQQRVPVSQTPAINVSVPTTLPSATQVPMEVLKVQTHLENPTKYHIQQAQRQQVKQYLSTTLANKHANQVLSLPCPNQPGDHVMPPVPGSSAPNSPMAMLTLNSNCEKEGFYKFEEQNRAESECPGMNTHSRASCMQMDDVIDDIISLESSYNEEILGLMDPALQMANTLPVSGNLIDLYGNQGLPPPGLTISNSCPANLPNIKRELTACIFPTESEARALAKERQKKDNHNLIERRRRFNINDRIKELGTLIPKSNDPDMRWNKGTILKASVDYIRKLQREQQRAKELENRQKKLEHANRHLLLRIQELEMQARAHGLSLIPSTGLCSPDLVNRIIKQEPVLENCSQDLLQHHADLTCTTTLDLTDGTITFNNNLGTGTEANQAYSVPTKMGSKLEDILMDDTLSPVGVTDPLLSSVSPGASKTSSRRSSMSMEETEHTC

[12] = system: BJ; test: cells; type: functional, cell-based; conditions: Homo sapiens
[13] = system: BJ; test: BJ-TERT-LT-ST fibroblast viability loss – cell-based, RAS-independent, luminescence, dose response (AID 1935); type: functional; conditions: Homo sapiens;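 further: BJ fibroblasts immortalized with TERT plus LT and ST oncogenes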
[14] = A Cell Based Secondary Assay To Explore Cytotoxicity of Compounds that Sensitize Mycobacterium Tuberculosis to Beta-Lactam Antibiotics.; type: functional
[15] = fluconazole-exposed Candida albicans growth modulators – fluorescence, retest, confirmation (AID 2467); type: functional, cell-based
[16] = NIH-3T3 fibroblast cytotoxicity, dose response, cytotoxicity control, cell-based, fluorescence, Alamar Blue, secondary assay (AID 2327); type: functional;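 further: NIH-3T3 mouse fibroblasts cultured with fluconazole at 8 µg/mL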
[17] = target: T3, Heat shock factor protein 1 (Mus musculus, UniProt P38532); test: enhancement of HSF1-driven luciferase signal – cell-based, NIH3T3, luminescence, dose retest, confirmation (AID 435004); type: functional;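 further: stress induced by proteasome inhibitor MG132 added 30 min after compound; luciferase reporter driven by HSF1 response element in NIH3T3 cells; actives raise luminescence as potentiators of the MG132 stress response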
T3 sequence (P38532 whole entry): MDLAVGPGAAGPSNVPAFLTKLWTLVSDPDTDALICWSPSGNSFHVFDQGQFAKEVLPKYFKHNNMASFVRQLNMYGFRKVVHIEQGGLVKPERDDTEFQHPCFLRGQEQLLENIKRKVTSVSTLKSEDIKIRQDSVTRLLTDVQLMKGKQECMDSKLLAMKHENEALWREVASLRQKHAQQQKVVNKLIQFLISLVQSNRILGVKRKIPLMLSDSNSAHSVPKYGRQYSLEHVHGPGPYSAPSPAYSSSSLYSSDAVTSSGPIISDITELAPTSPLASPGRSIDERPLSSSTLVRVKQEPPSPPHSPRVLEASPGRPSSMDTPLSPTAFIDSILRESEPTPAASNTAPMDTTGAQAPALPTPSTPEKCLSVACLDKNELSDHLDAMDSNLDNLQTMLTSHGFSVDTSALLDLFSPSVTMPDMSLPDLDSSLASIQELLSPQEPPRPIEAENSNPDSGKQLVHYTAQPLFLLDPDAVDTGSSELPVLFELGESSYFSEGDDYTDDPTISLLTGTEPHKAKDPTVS

[18] = cells; type: functional, cell-based
[19] = cells; type: functional, cell-based; remark: listed apart in the source
[20] = reduction of Shn3 3'UTR-driven luciferase in osteoblasts – cell-based, Clone20 osteoblasts, firefly luciferase, cherry-picked, dose response (AID 624132); type: functional;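 further: firefly luciferase luminescence from reporter carrying the Shn3 3'UTR in osteoblasts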
[21] = non-specific 3'UTR reporter inhibition in Clone20-Shn3RL – cell-based, Renilla luciferase, cherry-picked, counter-screen for Shn3 inhibitor project, dose response (AID 624133); type: functional
[22] = loss of viability in HepG2 cells – cell-based, CellTiter-Glo, cherry-picked, cytotoxicity control for Shn3 inhibitor project, dose response (AID 624134); type: functional
[23] = THP-1 cell cytotoxicity, dose response, cytotoxicity control for non-replicating M. tuberculosis project (AID 489025); type: functional
[24] = target: Heat shock protein HSP 90-alpha (Homo sapiens, UniProt P07900); type: functional, organism-based
[25] = target: Glucose-6-phosphate 1-dehydrogenase (Homo sapiens, UniProt P11413); test: inhibition of Homo sapiens G6PD, dose series – biochemical, fluorescence, selectivity assay for P. falciparum G6PD inhibitor project, dose response (AID 504792); type: functional
[26] = target: T4, Hexokinase (Trypanosoma brucei, UniProt Q38C41); test: Confirmation assay for inhibitors of Trypanosoma brucei hexokinase 1-Analogue-first series. [Related pubchem assays (depositor defined):AID1430, AID1632, AID2516, AID2560, AID2579, AID2600, AID449725, AID492951]; type: functional
T4 sequence (Q38C41 whole entry): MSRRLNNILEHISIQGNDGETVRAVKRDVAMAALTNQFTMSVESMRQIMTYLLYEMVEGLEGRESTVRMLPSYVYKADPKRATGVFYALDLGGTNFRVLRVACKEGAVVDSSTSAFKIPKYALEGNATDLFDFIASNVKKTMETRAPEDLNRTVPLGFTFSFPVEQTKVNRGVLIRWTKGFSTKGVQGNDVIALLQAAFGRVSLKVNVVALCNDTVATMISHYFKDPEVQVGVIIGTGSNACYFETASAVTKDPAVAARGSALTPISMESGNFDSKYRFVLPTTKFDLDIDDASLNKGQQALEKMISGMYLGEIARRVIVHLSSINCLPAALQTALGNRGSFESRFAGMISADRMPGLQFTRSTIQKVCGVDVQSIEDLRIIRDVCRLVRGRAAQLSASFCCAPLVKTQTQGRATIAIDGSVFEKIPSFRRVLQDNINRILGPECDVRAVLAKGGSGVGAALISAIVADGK

[27] = target: Eukaryotic translation initiation factor 4E (Mus musculus, UniProt P63073); test: blockers of eIF4G binding by eIF4E – biochemical, TR-FRET, dose response (AID 855); type: functional;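 further: potency for disrupting eIF4E binding to eIF4GI seen as loss of FRET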
Chain of Eukaryotic translation initiation factor 4E (P63073 whole entry): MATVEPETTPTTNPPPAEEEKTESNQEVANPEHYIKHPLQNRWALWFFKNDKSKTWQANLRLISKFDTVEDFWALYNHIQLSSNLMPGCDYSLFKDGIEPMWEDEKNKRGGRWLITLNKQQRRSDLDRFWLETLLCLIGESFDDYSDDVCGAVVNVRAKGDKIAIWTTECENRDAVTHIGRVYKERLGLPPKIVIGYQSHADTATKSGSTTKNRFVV

T1 sequence (P11940 whole entry, the tested form may be a part): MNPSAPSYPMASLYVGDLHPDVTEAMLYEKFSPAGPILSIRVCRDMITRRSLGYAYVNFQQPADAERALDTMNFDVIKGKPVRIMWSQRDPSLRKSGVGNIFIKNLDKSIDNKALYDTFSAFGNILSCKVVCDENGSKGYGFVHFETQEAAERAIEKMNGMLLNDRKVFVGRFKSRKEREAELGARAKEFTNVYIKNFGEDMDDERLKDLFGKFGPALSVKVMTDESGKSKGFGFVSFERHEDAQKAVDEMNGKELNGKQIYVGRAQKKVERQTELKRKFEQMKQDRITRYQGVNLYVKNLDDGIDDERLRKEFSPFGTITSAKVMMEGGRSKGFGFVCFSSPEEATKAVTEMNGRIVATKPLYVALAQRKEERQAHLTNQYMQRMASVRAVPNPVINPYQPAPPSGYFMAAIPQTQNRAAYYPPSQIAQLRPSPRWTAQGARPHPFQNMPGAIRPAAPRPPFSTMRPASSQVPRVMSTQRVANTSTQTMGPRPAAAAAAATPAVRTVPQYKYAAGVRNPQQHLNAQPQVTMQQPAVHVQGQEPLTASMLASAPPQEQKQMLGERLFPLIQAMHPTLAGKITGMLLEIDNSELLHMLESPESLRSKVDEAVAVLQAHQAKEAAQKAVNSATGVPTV
Chain of Glucose-6-phosphate 1-dehydrogenase (P11413 whole entry): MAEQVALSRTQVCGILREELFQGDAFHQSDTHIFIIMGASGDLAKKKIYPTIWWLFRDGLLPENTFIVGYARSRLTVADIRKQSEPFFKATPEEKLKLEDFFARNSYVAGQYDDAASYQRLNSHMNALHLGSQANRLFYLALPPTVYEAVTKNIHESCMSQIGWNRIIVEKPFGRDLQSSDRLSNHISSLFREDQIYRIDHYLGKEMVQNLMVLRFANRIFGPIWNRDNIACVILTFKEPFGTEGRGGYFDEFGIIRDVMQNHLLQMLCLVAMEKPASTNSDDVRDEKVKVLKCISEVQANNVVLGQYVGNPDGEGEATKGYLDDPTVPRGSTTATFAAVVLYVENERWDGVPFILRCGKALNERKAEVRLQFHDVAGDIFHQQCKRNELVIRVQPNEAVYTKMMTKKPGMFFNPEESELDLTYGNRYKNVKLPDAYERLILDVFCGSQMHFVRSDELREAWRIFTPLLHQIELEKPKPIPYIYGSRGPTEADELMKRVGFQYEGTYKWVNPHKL

Structure (SMILES): COc1ccc(C(=O)/C=C/c2cc(OC)c(O)c(OC)c2)c(F)c1
- IC50 [1]: > 25 µM (active)
- CC50 [2]: 14.3 µM (active)
- CC50 [3]: 18.7 µM (active)
- CC50 [4]: 25.7 µM (active)
- AC50 [5]: 7.21 µM (active)

Structure (SMILES): CCCCc1c(O)nc(SCC(=O)c2ccccc2)nc1O
- IC50 [6]: > 66 µM (inactive)
- IC50 [7]: > 66 µM (inactive)
- AC50 [8]: 30.3 µM (active)

Structure (SMILES): CCCN(CC(=O)Nc1ccccc1C)C(=O)CCl
- EC50 [9]: 8.23 µM (active)
- EC50 [10]: 4 µM (active)
- CC50 [3]: 9.42 µM (active)
- AC50 [11]: 4.04 µM (active)
- EC50 [12]: 14.9 µM (inconclusive)
- EC50 [13]: > 150 µM (inconclusive)

Structure (SMILES): Cc1cccc(NC(=O)[C@H](Cc2c[nH]c3ccccc23)NC(=O)[C@@H]2Cc3ccccc3CN2)c1
- IC50 [1]: 4.39 µM (active)
- EC50 [9]: 71.3 µM (active)
- EC50 [10]: 28.3 µM (active)
- CC50 [3]: 19.4 µM (active)
- EC50 [12]: 26.9 µM (active)
- EC50 [13]: > 150 µM (not active)

Structure (SMILES): O=C(NNC(=S)NC(=O)c1sc2ccccc2c1Cl)c1ccc(Cl)cc1
- IC50 [1]: 10 µM (active)
- CC50 [3]: > 25 µM (active)

Structure (SMILES): CN(C)S(=O)(=O)c1ccc(C(=O)/C=C/c2cccnc2)cc1
- EC50 [9]: 10.4 µM (active)
- EC50 [10]: 10.4 µM (active)
- CC50 [14]: 17.5 µM (active)
- EC50 [12]: > 150 µM (not active)
- EC50 [13]: > 150 µM (inconclusive)

Structure (SMILES): COc1ccc(-n2nc3c(N4CCC(C(=O)N5CCC(C)CC5)CC4)nnc(C)c3c2C)cc1
- EC50 [15]: > 38 µM (not active)
- EC50 [16]: > 160 µM (inactive)
- EC50 [17]: > 260 µM (inactive)

Structure (SMILES): CCCn1c(SCC(=O)Nc2ccccc2CC)nnc1C(C)C
- EC50 [18]: > 350 µM (not active)
- EC50 [19]: > 350 µM (not active)

Structure (SMILES): CC(C)Cn1c2c(c(O)c(C(=O)Nc3ccc(F)cc3)c1=O)CCCC2
- CC50 [14]: > 40 µM (active)

Structure (SMILES): Nc1nc(CN2CCN(c3ccccn3)CC2)nc(Nc2ccc(F)cc2)n1
- EC50 [15]: > 38 µM (not active)
- EC50 [16]: > 150 µM (inconclusive)

Structure (SMILES): COCc1cc(C)n(CC(=O)NC(C)c2ccccc2)c(=O)c1C#N (stereo not drawn)
- AC50 [8]: 27.1 µM (active)

Structure (SMILES): CCc1sc2nc(SCC(=O)Nc3cc(C)on3)n(-c3cccc(OC)c3)c(=O)c2c1C
- CC50 [14]: 36.3 µM (active)

Structure (SMILES): CCOC(=O)c1c(-c2ccccc2)oc2cc(CN(C)C)c(O)c(CN(C)C)c12
- AC50 [20]: 7.81 µM (active)
- EC50 [18]: 28 µM (active)
- AC50 [21]: 5.5 µM (active)
- EC50 [19]: > 350 µM (not active)
- AC50 [22]: 21.2 µM (active)

Structure (SMILES): O=C(NCc1cccc(Cl)c1)c1cnn2c1NC(c1ccco1)CC2C(F)(F)F (stereo not drawn)
- AC50 [8]: 24.2 µM (active)

Structure (SMILES): Cc1cccc(CCNC(=O)Cn2ncc3c4cc(C)ccc4nc-3c2O)c1
- EC50 [18]: > 350 µM (not active)
- EC50 [19]: > 350 µM (not active)

Structure (SMILES): Cc1cccc(NCc2ccc([N+](=O)[O-])s2)c1
- CC50 [23]: > 40 µM (active)

Structure (SMILES): CCC1Oc2nc(SC)nnc2-c2ccccc2N1C(=O)c1ccccc1 (stereo not drawn)
- AC50 [8]: 24.1 µM (active)

Structure (SMILES): O=C(/C=C/c1ccccn1)c1cc(Br)ccc1O
- CC50 [14]: > 40 µM (active)
- AC50 [24]: 2.03 µM (active)

Structure (SMILES): N#CC(C#N)=C1C=CC=CN1/C(=C\c1ccccc1Cl)C(=O)c1ccccc1
- IC50 [1]: > 25 µM (active)
- IC50 [25]: > 80 µM (inactive)
- CC50 [3]: 24.5 µM (active)

Structure (SMILES): CC1(c2ccc(C(=O)Nc3cc(Cl)ccc3C(=O)O)cc2)CC1
- IC50 [26]: 8 µM (active) and 4.24 µM (active)

Structure (SMILES): CN(C)c1cccc(NC(=O)Cn2sc3ccccc3c2=O)c1
- IC50 [26]: 8.21 µM (active)

Structure (SMILES): O=c1c2ccccc2[s+]([O-])n1-c1ccc(Cl)cc1 (stereo not drawn)
- IC50 [26]: > 25 µM (inactive)

Structure (SMILES): COc1ccccc1NC(=O)Cn1sc2ccccc2c1=O
- IC50 [26]: 6.28 µM (active)

Structure (SMILES): COC(CN(C)C(=O)C1CCCN(S(=O)(=O)c2ccc3c(c2)oc(=O)n3C)C1)OC (stereo not drawn)
- AC50 [8]: 27.3 µM (active)

Structure (SMILES): O=C(N/N=C/c1ccc2c(c1)OCO2)c1sc2cc(Cl)ccc2c1Cl
- CC50 [14]: > 40 µM (active)
- IC50 [27]: > 64 µM (inactive)

Structure (SMILES): COc1cc(/C=N/NC(=O)c2cc(-c3cccc(OC(C)C)c3)nc3ccccc23)ccc1O
- IC50 [1]: > 25 µM (active)
- CC50 [2]: 15.5 µM (active)
- CC50 [3]: > 25 µM (active)

Structure (SMILES): O=c1c(/N=N/c2ccc(O)cc2)c(-c2ccccc2)[nH]n1-c1ccc([N+](=O)[O-])cc1
- CC50 [14]: 17.7 µM (active)

From ChEMBL document CHEMBL1201862, “PubChem BioAssay data set” (2004)
